{
  "source": "patent US11738072B2",
  "about": "“Tumor vaccine and uses thereof” (WestVac Biopharma Co., Ltd., priority 2017, dated 2023)",
  "key": {"CT26 cells": {"tested_on": "CT26 cells", "assay": "CT26 cell death test by PI-AnnexinV (fluorescence microscope)", "type": "cell-based, mouse", "conditions": "CT26, 24 h", "description": "(1) Experimental method: same as 1."}, "lysosomes of A549 cells": {"tested_on": "lysosomes of A549 cells", "assay": "Lysosomal membrane permeability by CathepsinB intracellular localization", "type": "cell-based", "conditions": "3 h, immunofluorescence, confocal microscope", "procedure": "(1) Inoculation of A549 cells in plates: round sterilized cell slides were placed at the bottom of a 6-well plate, inoculated A549 cells into the 6-well plate as per 1×10^5 cells/well, 2 ml of medium was added to each well, and incubated overnight.\n(2) The medium (blank control group), pMVA-1 plasmid (control group PMVA), DOTAP cationic lipid (control group DOTAP) and pMVA-1/DOTAP complex (experimental group PMVA-DOTAP) were added to A549 cells cultured in the Step (1), and incubated at 37° C. for 3 h.\n(3) A549 cells treated by different groups in Step (2) were washed twice with PBS, stabilized with ice methanol for 3 min, washed twice with PBS, and sealed with PBST containing 0.3% Triton of 5% FBS for 20 min.\n(4) The cells in Step (3) were washed once with PBS, and the human CathepsinB antibody (made by Abcam) was diluted at a ratio of 1:300. Incubating at room temperature for 1 h, washing with PBS three times for 5 minutes each time, adding 1:1000 fluorescent secondary antibody, and incubating at room temperature for 1 h in the dark.\n(5) The cells in Step (4) were washed with PBS for three times, the films were washed with ultrapure water to remove excess water, and sealed with anti-fluorescence quencher, then cured for 6 h. Fluorescent cells were observed under a confocal microscope and the images were saved."}, "A549 cells": {"tested_on": "A549 cells", "assay": "Mitochondrial membrane potential by TMRM, flow cytometry", "type": "cell-based", "conditions": "A549, 15-24 h", "procedure": "(1) Inoculation of tumor cells in plates: A549 cells and CT26 cells in the logarithmic growth phase were prepared into a cell suspension respectively, inoculated into a 6-well plate as per 1×10^5 cells/well, 2 ml of medium was added to each well, and cultured overnight in a 5% CO2 incubator at 37° C.\n(2) Different samples added to act on tumor cells: the pMVA-1 plasmid, the DOTAP cationic lipid and the pMVA-1/DOTAP complex were added to the tumor cells cultured in Step (1) respectively, and incubated at 37° C. for 15 h, 18 h, 21 h and 24 h.\n(3) Preparation of TMRM dyeing working fluid (made by Life Technologies): the TMRM mother liquor was diluted with PBS at a ratio of 1:100000 to obtain the TMRM dyeing working fluid. […]\n(5) The tumor cells in Step (4) were collected and treated with different samples for different times, and the tumor cells with mitochondrial membrane potential changes were analyzed by flow cytometry.\nAs a potentiometric fluorescence probe, tetramethylrhodamine methyl ester (TMRM) entered the cells and was cleaved by cell lactonase to produce tetramethylrhodamine, indicating strong fluorescence after they had entered mitochondria. […] Therefore, the open state of mitochondrial membrane channel pores can be verified by testing the changes of fluorescence intensity in mitochondria of tumor cells."}, "[1]": {"tested_on": "mouse colorectal cancer cell line CT26", "assay": "Experiment (1): model mice with abdominal metastasis of CT26, treated 9 times", "type": "in vivo", "procedure": "Balb/c mice aged 6-8 weeks were raised. The mouse colorectal cancer cell line CT26 cultured to the logarithmic growth phase was prepared into a cell suspension, and mouse abdominal tumor was modeled by intraperitoneal injection. The number of cells injected into each mouse was 2×10^5, and the injection system was 100 μl for each mouse.\nAs described in Table 14, the mice that had been successfully modeled were divided into groups as follows: Normal group was not inoculated with tumor cell nor administrated with drugs; untreated group was intraperitoneally inoculated with CT26 cells instead of drugs; NS group was intraperitoneally inoculated with tumor cells and administrated with normal saline. After inoculation of the tumor, mice were intraperitoneally administrated on the 3rd day as follows: 15 μg of plasmid DNA and 75 μg of DOTAP for each mouse in the treatment group of plasmid DNA/DOTAP complex group; i.e. the mass ratio of plasmid DNA to DOTAP was 1:5. After that, they were administrated every three days for a total of 9 times.\nThe mice were administrated for 9 times in total and allowed to die naturally. The natural death dates of the mice in each experimental group were recorded, and the body weight and survival time of the mice in each experimental group were counted. The volume of ascites were counted, tumors were removed and weighed."}, "[2]": {"tested_on": "mouse cervical cancer cell line U14", "assay": "Mice U14 subcutaneous model, complex combined with chemotherapy", "type": "in vivo, C57 female mice", "conditions": "U14 sc", "procedure": "C57 female mice aged 6-8 weeks were raised. The mouse cervical cancer cell line U14 cultured to the logarithmic growth phase was prepared into a cell suspension and the cell density was 2×10^7/ml. Experimental animals were subcutaneously injected on the right back, with an injection system of 100 μl per mouse. When the tumor could be palpated (tumor volume is about 4 mm×4 mm×3 mm, i.e. the 5th day after inoculation), the mice were randomly divided into 6 groups, and administrated every 3 days for a total of 8 times according to the grouping and treatment scheme in Table 16. The tumor volume was measured every three days. After administration for 8 times, the mice were killed and subcutaneous tumors were dissected for examination.\nWherein, the administration volume is 100 μl per mouse, DDP is intraperitoneally administrated once a week. DDP is Cisplatin and LP is pMVA-1/DOTAP complex."}},
  "data": [
    {"smiles": "CCCCCCCC/C=C\\CCCCCCCC(=O)OCC(C[N+](C)(C)C)OC(=O)CCCCCCC/C=C\\CCCCCCCC", "note": "(stereo not shown) [DOTAP, 1,2-dioleoyl-3-trimethylammonium-propane]", "values": [
      {"measurement": "PI-positive and AnnexinV-positive cells", "setting": "CT26 cells", "result": "did not indicate obvious PI uptake and obvious AnnexinV-labeled positive cells"},
      {"measurement": "distribution of Cathepsin B in A549 cells", "setting": "lysosomes of A549 cells", "result": "distributed in dots"},
      {"measurement": "mitochondrial membrane potential", "setting": "A549 cells", "result": "did not change significantly"},
      {"measurement": "average ascites volume", "setting": "[1]; 15 μg pMVA-1 and/or 75 μg DOTAP ip every 3 days x9", "result": 3.11, "unit": "mL"},
      {"measurement": "day after inoculation of the tumor cells on which all mice of the group had died", "setting": "[1]; 15 μg pMVA-1 and/or 75 μg DOTAP ip every 3 days x9, natural death", "result": 39, "unit": "days"},
      {"measurement": "average tumor weight", "setting": "[1]; abdominal tumor weighed after the mice died", "result": 8.23, "unit": "g"},
      {"measurement": "lymphocyte infiltration in tumor tissue", "setting": "[2]", "result": "less common"}
    ]}
  ]
}
